These results are taken from patent publication US20240158446A1, “CYCLIC COMPOUND HAVING SELECTIVE INHIBITORY ACTION ON KRAS OVER HRAS AND NRAS” (CHUGAI SEIYAKU KABUSHIKI KAISHA, priority 2021, published 2024).

Assay [1] has as its target GDP-bound HRAS wild-type protein (Homo sapiens, UniProt P01112). Nature of the assay: Binding to HRAS by surface plasmon resonance (SPR), Single Cycle Kinetics. As to conditions: for HRAS/KRAS (ratio of KD value with respect to HRAS to KD value with respect to KRAS) / HRAS/KRAS (ratio of KD value for HRAS to KD value for KRAS): SPR, GDP-bound HRAS wild-type protein vs GDP-bound KRAS wild-type protein. A general note: Surface plasmon resonance follows binding to a sensor surface in real time, without labels.

For assay [2], the target named is GDP-bound NRAS wild-type protein (Homo sapiens, UniProt P01111). Nature of the assay: Binding to NRAS by surface plasmon resonance (SPR), Single Cycle Kinetics. As to conditions: for NRAS/KRAS (ratio of KD value with respect to NRAS to KD value with respect to KRAS) / NRAS/KRAS (ratio of KD value for NRAS to KD value for KRAS): SPR, GDP-bound NRAS wild-type protein vs GDP-bound KRAS wild-type protein.
Sequence of GDP-bound NRAS wild-type protein (P01111 whole entry): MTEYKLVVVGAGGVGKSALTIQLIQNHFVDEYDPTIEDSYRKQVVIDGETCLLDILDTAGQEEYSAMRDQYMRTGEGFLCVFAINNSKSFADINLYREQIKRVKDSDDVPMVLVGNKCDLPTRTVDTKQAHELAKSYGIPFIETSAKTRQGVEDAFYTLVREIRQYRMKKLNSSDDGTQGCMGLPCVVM

Sequence of GDP-bound HRAS wild-type protein (P01112 whole entry): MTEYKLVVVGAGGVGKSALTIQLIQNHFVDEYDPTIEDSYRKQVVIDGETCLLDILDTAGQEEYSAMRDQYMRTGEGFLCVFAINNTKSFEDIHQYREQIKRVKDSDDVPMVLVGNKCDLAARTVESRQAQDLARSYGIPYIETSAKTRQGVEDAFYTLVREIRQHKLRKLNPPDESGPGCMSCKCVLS

On to `CC[C@H](C)[C@@H]1NC(=O)[C@H](CC)N(C)C(=O)C[C@@H](C(=O)N2CCOCC2)N(C)C(=O)[C@H](C2CCCC2)N(C)C(=O)C2(CCCC2)NC(=O)[C@@H]2CCCN2C(=O)[C@H](CCc2cc(F)c(C(F)(F)F)c(F)c2)NC(=O)CN(C)C(=O)[C@H](Cc2ccc(C(F)(F)F)cc2)N2CCCC[C@@H](C2=O)N(C)C(=O)CN(C)C1=O` [PP0550], for which, in assay [1], the “HRAS/KRAS (ratio of KD value with respect to HRAS to KD value with respect to KRAS)” value was “B (a compound having 3 or more and less than 10 is denoted as B)”. Further, the “NRAS/KRAS (ratio of KD value with respect to NRAS to KD value with respect to KRAS)” value in assay [2] was “B (a compound having 3 or more and less than 10 is denoted as B)”.
As for `CCO[C@@H]1C[C@H]2C(=O)N(C)C3(CC(C)(C)C3)C(=O)N(C)[C@@H](C(CC)CC)C(=O)N(C)[C@H](C(=O)N(C)C)CC(=O)N(C)[C@@H](COC)C(=O)N[C@@H]([C@@H](C)CC)C(=O)N(C)CC(=O)N(C)[C@H]3C/C=C\CCN(C3=O)[C@@H](Cc3ccc(C)cc3)C(=O)N(C)CC(=O)N[C@@H](CCc3ccc(Cl)c(Cl)c3)C(=O)N2C1` [PP2810], the “HRAS/KRAS (ratio of KD value with respect to GDP-bound HRAS wild-type protein to KD value with respect to KRAS)” value in assay [1] (SPR KD ratio HRAS/KRAS, class symbols) is “A (a compound having 10 or more and less than 20 is denoted as A)”. In addition, in assay [2] (SPR KD ratio NRAS/KRAS, class symbols), the “NRAS/KRAS (ratio of KD value with respect to GDP-bound NRAS wild-type protein to KD value with respect to KRAS)” value was “AA (a compound having 20 or more is denoted as AA)”.
Regarding `CC[C@H](C)[C@@H]1NC(=O)[C@H](CC(C)C)N(C)C(=O)C[C@@H](C(=O)N2C3CCC2COC3)N(C)C(=O)[C@H](C2CCCC2)N(C)C(=O)C2(CCCC2)NC(=O)[C@@H]2CCCN2C(=O)[C@H](CCc2cc(F)c(C(F)(F)F)c(F)c2)NC(=O)CN(C)C(=O)[C@H](Cc2ccc(C(F)(F)F)cc2)N2CCCCC[C@@H](C2=O)N(C)C(=O)CN(C)C1=O` [PP0511], the “HRAS/KRAS (ratio of KD value with respect to HRAS to KD value with respect to KRAS)” value in assay [1] was “B (a compound having 3 or more and less than 10 is denoted as B)”. Besides, the “NRAS/KRAS (ratio of KD value with respect to NRAS to KD value with respect to KRAS)” value in assay [2] was “A (a compound having 10 or more and less than 20 is denoted as A)”.
With `CCC[C@H]1C(=O)N[C@@H](C2CCCC2)C(=O)N(C)CC(=O)N(C)[C@H]2C/C=C\CCN(C2=O)[C@@H](Cc2ccc(C)cc2)C(=O)N(C)CC(=O)N[C@@H](CCc2ccc(C(F)(F)F)c(OC)c2)C(=O)N2CC3(CC3)C[C@H]2C(=O)NC2(CC(C)(C)C2)C(=O)N(C)[C@@H](C2CCCC2)C(=O)N(C)[C@H](C(=O)N(C)C)CC(=O)N1C` [PP2994], in assay [1], the “HRAS/KRAS (ratio of KD value for HRAS to KD value for KRAS)” value is “A (a compound having 10 or more and less than 20 is denoted as A)”. Further, the “NRAS/KRAS (ratio of KD value for NRAS to KD value for KRAS)” value in assay [2] is “AA (a compound having 20 or more is denoted as AA)”.
`CCO[C@@H]1C[C@H]2C(=O)NC3(CCC3)C(=O)N(C)[C@@H](C3CCCC3)C(=O)N(C)[C@H](C(=O)N(CC)CC)CC(=O)N(C)[C@@H](CC(F)F)C(=O)N[C@@H]([C@@H](C)CC)C(=O)N(C)CC(=O)N(C)[C@H]3C/C=C\CCN(C3=O)[C@@H](Cc3ccc(C(F)(F)F)cc3)C(=O)N(C)CC(=O)N[C@@H](CCc3cc(F)c(C(F)(F)F)c(F)c3)C(=O)N2C1` [PP1309]: in assay [1] (KD ratio class), the “HRAS/KRAS (ratio of KD value for HRAS to KD value for KRAS)” value is “A (a compound having 10 or more and less than 20 is denoted as A)”. The “NRAS/KRAS (ratio of KD value for NRAS to KD value for KRAS)” value in assay [2] (KD ratio class) was “A (a compound having 10 or more and less than 20 is denoted as A)”.
For the compound `CC[C@H](C)[C@@H]1NC(=O)[C@H](CC(C)C)N(C)C(=O)C[C@@H](C(=O)N2CCOCC2)N(C)C(=O)[C@H](C2CCCC2)N(C)C(=O)C2(CCC2)NC(=O)[C@@H]2C[C@@H](OCC(F)F)CN2C(=O)[C@H](CCc2cc(F)c(C(F)(F)F)c(F)c2)NC(=O)CN(C)C(=O)[C@H](Cc2ccc(C(F)(F)F)cc2)N2CCCCC[C@@H](C2=O)N(C)C(=O)CN(C)C1=O` [PP1006], the “HRAS/KRAS (ratio of KD value for HRAS to KD value for KRAS)” value in assay [1] was “B (a compound having 3 or more and less than 10 is denoted as B)”. Further, in assay [2], the “NRAS/KRAS (ratio of KD value for NRAS to KD value for KRAS)” value is “B (a compound having 3 or more and less than 10 is denoted as B)”.
With `CC[C@H](C)[C@@H]1NC(=O)[C@H](CC2CCCC2)N(C)C(=O)C[C@@H](C(=O)N(C)C)N(C)C(=O)[C@H](C2CCCC2)N(C)C(=O)C2(CCC2)NC(=O)[C@@H]2C[C@@H](C(F)(F)F)CN2C(=O)[C@H](CCc2cc(F)c(C(F)(F)F)c(F)c2)NC(=O)CN(C)C(=O)[C@H](Cc2ccc(F)cc2)N2CC/C=C\C[C@@H](C2=O)N(C)C(=O)CN(C)C1=O` [PP1508], in assay [1] (KD ratio class), the “HRAS/KRAS (ratio of KD value for HRAS to KD value for KRAS)” value was “A (a compound having 10 or more and less than 20 is denoted as A)”. Moreover, in assay [2] (KD ratio class), the “NRAS/KRAS (ratio of KD value for NRAS to KD value for KRAS)” value is “A (a compound having 10 or more and less than 20 is denoted as A)”.
